The text below walks through data of patent publication US4954156A, “N,N-dihalo-2-imidazolidinones and N-halo-2-oxazolidinones as urease and nitrification inhibitors” (Tennessee Valley Authority, priority 1989, dated 1990).

Several values for one entry are separate records, joined by “and”; a condition that tells them apart may be missing. Equal values may be shown once.

Data set [1] has as its system soil urease (urease-active Hastings silt loam soil). The data set can be described thus: Banded soil system urease inhibition test (Hastings silt loam). The following applies: 410 mg urea + 41 mg inhibitor. The protocol: Embodiment 1: Urease activity of inhibitor test compounds may be evaluated either in aqueous or in soil systems. When aqueous systems are used, urea plus a test compound with possible urease inhibition activity and relatively pure urease enzyme are incubated together to determine the effects of the test compound on urease-catalyzed hydrolysis of urea. When soil systems are used, urea and the test compound are added to moist soil, and the urease enzyme is supplied from the soil. The main disadvantage of using soil systems is that the true activity of test compounds may be masked because of reactions between the test compound and soil. Thus, basic studies for understanding chemical structure-activity relationships are usually done in aqueous systems.
Soil System Test Procedure: The soil system test procedure used was a modification of the previous procedures of other researchers L. A. Douglas and J. M. Bremner, Soil Biol. Biochem. 3, 309-315 (1971) and J. M. Bremner and R. L. Mulvaney, "Urease Activity in Soils," Soil Enzymes 5, R. G. Burns, editor, Academic Press, 149-195 (1978)]. In this modified procedure powdered mixtures of urea and test compounds were applied in narrow bands in the soil rather than being mixed throughout the soil. The banded configuration also results in concentration gradients of urea, urea hydrolysis products, test compounds, and test compound decomposition products similar to those in the immediate vicinity of urea granules containing the test compounds. Another advantage of the banded configuration compared with mixing throughout the soil is that slightly soluble test compounds can be easily band applied, whereas it is difficult to achieve a known degree of mixing of a small quantity of slightly soluble test compound with soil. The banded configuration also enables testing for urease inhibition under realistic soil conditions prior to the development of techniques for cogranulating a wide range of test compounds with urea.
A detailed description of the banded soil testing procedure follows. Urease-active soil (Hastings silt loam) was moistened to a moisture content of 20 percent dry weight basis) and preincubated at room temperature for two days. Plexiglas containers (6×6×6 cm) were half filled with soil and packed to a bulk density of 1.0 g/cm . Urea (410 mg) or urea (410 mg) plus inhibitor (41 mg, thoroughly mixed with the urea) was distributed in a narrow band about 0.5 cm wide and 6 cm long on the soil surface. The containers then were filled with soil, again packing to a bulk density of 1.0 g/cm^3. The containers were incubated at 25° C. for the desired reaction period, after which the containers were frozen to about -5° C. to stop urea hydrolysis. Immediately prior to extracting the remaining urea from the soil, said soil was allowed to thaw. Soil from each container was thoroughly mixed, and a 10-g sample was extracted with 100 ml of 2 M KCl containing phenylmercuric acetate to prevent urea hydrolysis during handling [L. A. Douglas and J. M. Bremner, Soil. Sci. Soc. Am. Proc. 34, 859-862 (1970)]. Urea in the extracts was determined colorimetrically as a measure of unhydrolyzed urea and the results expressed as percent unhydrolyzed urea-N.
^a The plexiglas containers measured 6 × 6 × 6 cm.
Hastings silt loam soil was utilized and packed to a bulk density of 1
gm/cm^3 dry basis. The soil was wet to near field capacity (20%
moisture) and 260 g of wetted soil (216 g dry soil) was added per
container. The containers were packed half full, urea and inhibitor were
added, and the remaining soil was added. The amount of urea added = 410 m

Data set [2] deals with nitrification of ammonium nitrogen in soil. Description: Soil nitrification inhibition test (Mountainview silt loam, banded). The following applies: for % inhibition (nitrification) / Net mg NO2N / Net mg NO3N: 25° C, 410 mg urea + 41 mg inhibitor; for Nitrite accumulation in the soil: during the 5 weeks incubation, greater than with dicyandiamide. The protocol:
Embodiment 2: The N-Halamine compounds were tested for nitrification inhibition using the soil testing procedure described below.
Mountainview silt loam soil was screened through a 2 mm sieve. Plexiglas containers (8×8×6 cm) were packed half full with the soil and packed to a bulk density of 1.0 g/cm^3 and wetted to field capacity (approximately 20 weight percent moisture). The urea 410 mg per container) and inhibitor (41 mg per container) were added in a narrow band (0.5 cm wide X 6 cm long), and additional soil was added to fill the containers. The total amount of dry soil added was 384 g. The containers were incubated at 25° C. During incubation the containers were checked periodically for moisture loss and additional water added as needed to maintain moisture levels.
The individual containers were removed from the incubator at 1, 2, 3, 4, and 5 week intervals. After removal from the incubator the contents of the container were transferred to a plastic bag and thoroughly mixed. A 10-g sample of soil (dry basis) was taken from the bag and extracted with 100 ml of 2 N KCL. The extract was filtered through Whatman #41 filter paper and refrigerated until analyzed. Samples were analyzed for NO3-N- NO2-N- and urea-N using a colorimetric procedure. Some samples also were analyzed for NH4-N.
The percent nitrification inhibition was calculated according to the method of Bundy and Bremner [G. L. Bundy and J. M. Bremner, Soil Sci. Soc. Am. Proc. 37, 396-398 (1973)]
% nitrification inhibition=[(C-S)/C]×100
where C=net amount of NO3-N produced in the control (no inhibitor added), and S=net amount of NO3-N produced in the inhibitor treated sample.
^a Concentrations are in net mg/container. All containers had 384 g
soil (dry), 410 mg urea (188.6 mg N) and 41 mg inhibitor. Samples were
extracted 10 g → 100 mls 2N KCl. The formulas used for calculation
where C = net NO3N produced in control (no inhibitor), S = net
NO3N produced in inhibitor treated sample, net NO3N =
(NO3N) - (soil NO3N), and net NO2N = (NO2N) - (soil
NO2N). Values are averages of two replicate samples.

Take `CC1(C)COC(=O)N1Br` [IB, 3-bromo-4,4-dimethyl-2-oxazolidinone]: the “% unhydrolyzed urea-N” value was 65.51% and 65.5% in data set [1] (3 days incubation at 25° C); 10.05% and 10.0% in data set [1] (6 days incubation at 25° C). Moreover, the “PPM urea-N” value amounted to 58.0 PPM in data set [1] (3 days incubation at 25° C) and 8.9 PPM in data set [1] (6 days incubation at 25° C). Also, the “% inhibition (nitrification)” value in data set [2] (1 week) is recorded as 100.0%; in data set [2] (1 week, listed as 3-bromo-4,4-dimethyl-2-oxazolidinone), 100%; in data set [2] (2 weeks), 100.0%; in data set [2] (3 weeks), 100.0%; in data set [2] (4 weeks), 100.0%; in data set [2] (5 weeks), 99.6%. Besides, the “Net mg NO2N” value in data set [2] (1 week) is -0.02 mg/container; in data set [2] (2 weeks) it was 0.06 mg/container; in data set [2] (3 weeks), 0.12 mg/container; in data set [2] (4 weeks) it was 0.52 mg/container; in data set [2] (5 weeks) it was 2.64 mg/container. The “Net mg NO3N” value in data set [2] (1 week) is given as 0.0 mg/container; in data set [2] (2 weeks) it was 0.0 mg/container; in data set [2] (3 weeks) it was 0.0 mg/container; in data set [2] (4 weeks), 0.0 mg/container; in data set [2] (5 weeks), 0.8 mg/container. Moreover, the “Nitrite accumulation in the soil” value in data set [2] is reported as “well within plant tolerance levels”.
Turning to `N#CN=C(N)N` [Dicyandiamide, dicyandiamide, reference compound], the “% inhibition (nitrification)” value in data set [2] (1 week) stood at 78.2%; in data set [2] (2 weeks) it was 88.6%; in data set [2] (3 weeks), 87.4%; in data set [2] (4 weeks) it was 87.4%; in data set [2] (5 weeks), 90.0%; in data set [2] (5 weeks, listed as dicyandiamide) it was 90%. The “Net mg NO2N” value in data set [2] (1 week) is given as 0.17 mg/container; in data set [2] (2 weeks), 0.19 mg/container; in data set [2] (3 weeks), 0.01 mg/container; in data set [2] (4 weeks), 0.01 mg/container; in data set [2] (5 weeks) it was -0.02 mg/container. In addition, the “Net mg NO3N” value in data set [2] (1 week) is reported as 4.6 mg/container; in data set [2] (2 weeks), 17.7 mg/container; in data set [2] (3 weeks), 22.7 mg/container; in data set [2] (4 weeks) it was 22.7 mg/container; in data set [2] (5 weeks), 18.4 mg/container.
For the compound `CC1(C)N(Br)C(=O)N(Br)C1(C)C` [AB, 1,3-dibromo-4,4,5,5-tetramethyl-2-imidazolidinone], the “% unhydrolyzed urea-N” value in data set [1] (3 days incubation at 25° C) is 70.59% and 70.6%; in data set [1] (6 days incubation at 25° C), 15.02% and 15.0%. Further, the entries for the “PPM urea-N” value in data set [1] (3 days incubation at 25° C) and in data set [1] (6 days incubation at 25° C) were 62.5 PPM and 13.3 PPM, respectively. Besides, the “% inhibition (nitrification)” value in data set [2] (1 week) turned out to be 100.0%; in data set [2] (2 weeks), 100.0%; in data set [2] (3 weeks) it was 100.0%; in data set [2] (4 weeks), 100.0%; in data set [2] (5 weeks) it was 98.3%. In addition, the “Net mg NO2N” value in data set [2] (1 week) is reported as -0.05 mg/container; in data set [2] (2 weeks) it was 0.04 mg/container; in data set [2] (3 weeks) it was 0.03 mg/container; in data set [2] (4 weeks), 0.82 mg/container; in data set [2] (5 weeks), 2.63 mg/container. Besides, the “Net mg NO3N” value in data set [2] (1 week) is 0.0 mg/container; in data set [2] (2 weeks), 0.0 mg/container; in data set [2] (3 weeks), 0.0 mg/container; in data set [2] (4 weeks), 0.0 mg/container; in data set [2] (5 weeks), 3.1 mg/container. Further, the “Nitrite accumulation in the soil” value in data set [2] is reported as “well within plant tolerance levels”.
With `CC1(C)COC(=O)N1Cl` [I, 3-chloro-4,4-dimethyl-2-oxazolidinone], the “% unhydrolyzed urea-N” value in data set [1] (3 days incubation at 25° C) was 82.45% and 82.4%; in data set [1] (6 days incubation at 25° C), 56.47% and 56.5%. Further, the “PPM urea-N” value in data set [1] (3 days incubation at 25° C) came out at 73.0 PPM; in data set [1] (6 days incubation at 25° C), 50.0 PPM. The “% inhibition (nitrification)” value was 74.4% in data set [2] (1 week); 68.9% in data set [2] (2 weeks); 4.9% in data set [2] (3 weeks); -2.8% in data set [2] (4 weeks); -1.5% in data set [2] (5 weeks); 0% in data set [2] (5 weeks, listed as 3-chloro-4,4-dimethyl-2-oxazolidinone). Besides, the “Net mg NO2N” value was 0.28 mg/container in data set [2] (1 week); 0.49 mg/container in data set [2] (2 weeks); 0.07 mg/container in data set [2] (3 weeks); 0.02 mg/container in data set [2] (4 weeks); -0.01 mg/container in data set [2] (5 weeks). Further, the “Net mg NO3N” value was determined as 5.4 mg/container in data set [2] (1 week); 48.4 mg/container in data set [2] (2 weeks); 171.3 mg/container in data set [2] (3 weeks); 185.5 mg/container in data set [2] (4 weeks); 187.4 mg/container in data set [2] (5 weeks). In addition, the nitrification inhibition effect result in data set [2] (after three weeks) is on record as “almost completely exhausted”.
